Data reported in patent US10457703B2, “Bile acid derivatives as FXR/TGR5 agonists and methods of use thereof” (ENANTA PHARMACEUTICALS, INC., priority 2015, dated 2019).

Molecular target: human FXR (NR1H4) (Homo sapiens (Human), UniProt Q96RI1)
Experiment: Human FXR (NR1H4) Assay (Gal4 promoter driven luciferase reporter, Indigo Bioscience kit);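 for Efficacy (%): 100% equals the efficacy of CDCA; efficacy normalized to CDCA set as 100%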
Assay type: cell-based
Conditions: for EC50: Human FXR (NR1H4) Assay, potency ranges; for Emax: read-out: Efficacy (%)
Summary of the method: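 CHO reporter cells expressing human FXR with an FXR-responsive luciferase reporter, treated with compound doses at 0.2% DMSO. Incubation lasted 22 h at 37 °C before luciferase detection reagent was added. Luminescence was then read.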

Sequence of human FXR (NR1H4) (Q96RI1 whole entry, the tested form may be a part): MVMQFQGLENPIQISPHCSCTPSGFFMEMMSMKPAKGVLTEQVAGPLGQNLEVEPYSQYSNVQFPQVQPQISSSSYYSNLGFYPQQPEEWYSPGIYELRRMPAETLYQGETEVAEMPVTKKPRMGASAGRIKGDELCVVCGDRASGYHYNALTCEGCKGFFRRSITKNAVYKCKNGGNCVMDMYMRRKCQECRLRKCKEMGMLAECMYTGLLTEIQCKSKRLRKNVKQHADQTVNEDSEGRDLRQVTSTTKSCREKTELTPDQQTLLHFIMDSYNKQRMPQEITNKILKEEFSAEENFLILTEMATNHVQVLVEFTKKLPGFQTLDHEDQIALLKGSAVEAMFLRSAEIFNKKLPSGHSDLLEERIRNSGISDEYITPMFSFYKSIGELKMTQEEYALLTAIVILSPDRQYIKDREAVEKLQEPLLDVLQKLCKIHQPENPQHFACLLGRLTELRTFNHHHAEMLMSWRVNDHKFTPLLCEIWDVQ

SMILES | EC50 | Emax
CC[C@H]1[C@@H](O)[C@@H]2[C@H](CC[C@]3(C)[C@@H]([C@H](C)COC(=O)NS(=O)(=O)c4ccc(N5CCC(F)(F)CC5)cc4)CC[C@@H]23)[C@@]2(C)CC[C@@H](O)C[C@@H]12 [Example 21] | < 100 nM | 225%
CC[C@H]1[C@@H](O)[C@@H]2[C@H](CC[C@]3(C)[C@@H]([C@H](C)CCOC(=O)NS(=O)(=O)c4cccc(C(F)(F)F)c4)CC[C@@H]23)[C@@]2(C)CC[C@@H](O)C[C@@H]12 [Example 78] | 100 to 1000 nM | 365%
CC[C@H]1[C@@H](O)[C@@H]2[C@H](CC[C@]3(C)[C@@H]([C@H](C)CCCOC(=O)NS(=O)(=O)C(C)C)CC[C@@H]23)[C@@]2(C)CC[C@@H](O)C[C@@H]12 [Example 114] | 100 to 1000 nM | 345%
CC[C@H]1[C@@H](O)[C@@H]2[C@H](CC[C@]3(C)[C@@H]([C@H](C)CCOC(=O)NS(=O)(=O)c4ccc(F)cc4)CC[C@@H]23)[C@@]2(C)CC[C@@H](O)C[C@@H]12 [Example 46] | < 100 nM | 267%
CC[C@H]1[C@@H](O)[C@@H]2[C@H](CC[C@]3(C)[C@@H]([C@H](C)CCOC(=O)N[C@H]4CCC[C@H]4O)CC[C@@H]23)[C@@]2(C)CC[C@@H](O)C[C@@H]12 [Example 216] | 100 to 1000 nM | 478%
CC[C@H]1[C@@H](O)[C@@H]2[C@H](CC[C@]3(C)[C@@H]([C@H](C)COC(=O)NS(=O)(=O)c4ccc(C(C)(C)C)cc4)CC[C@@H]23)[C@@]2(C)CC[C@@H](O)C[C@@H]12 [Example 4] | < 100 nM | 319%
CC[C@H]1[C@@H](O)[C@@H]2[C@H](CC[C@]3(C)[C@@H]([C@H](C)CCOC(=O)N4CCC(CO)(CCl)CC4)CC[C@@H]23)[C@@]2(C)CC[C@@H](O)C[C@@H]12 [Example 183] | < 100 nM | 451%
CC[C@H]1[C@@H](O)[C@@H]2[C@H](CC[C@]3(C)[C@@H]([C@H](C)COC(=O)NS(=O)(=O)c4ccc(Oc5ccccc5)cc4)CC[C@@H]23)[C@@]2(C)CC[C@@H](O)C[C@@H]12 [Example 31] | 100 to 1000 nM | 207%
CC[C@H]1[C@@H](O)[C@@H]2[C@H](CC[C@]3(C)[C@@H]([C@H](C)CCOC(=O)Nc4ccccc4)CC[C@@H]23)[C@@]2(C)CC[C@@H](O)C[C@@H]12 [Example 191] | 1000 to 10000 nM | 330%
CC[C@H]1[C@@H](O)[C@@H]2[C@H](CC[C@]3(C)[C@@H]([C@H](C)CCOC(=O)N[C@@H]4CCC[C@H]4O)CC[C@@H]23)[C@@]2(C)CC[C@@H](O)C[C@@H]12 [Example 207] | 100 to 1000 nM | 188%
CC[C@H]1[C@@H](O)[C@@H]2[C@H](CC[C@]3(C)[C@@H]([C@H](C)CCOC(=O)NC(C)C)CC[C@@H]23)[C@@]2(C)CC[C@@H](O)C[C@@H]12 [Example 136] | 100 to 1000 nM | 185%
CC[C@H]1[C@@H](O)[C@@H]2[C@H](CC[C@]3(C)[C@@H]([C@H](C)CCOC(=O)NS(=O)(=O)c4cccc(C(C)(C)C)c4)CC[C@@H]23)[C@@]2(C)CC[C@@H](O)C[C@@H]12 [Example 54] | 100 to 1000 nM | 290%
CC[C@H]1[C@@H](O)[C@@H]2[C@H](CC[C@]3(C)[C@@H]([C@H](C)COC(=O)NS(=O)(=O)c4cccc(OC(C)(C)C)c4)CC[C@@H]23)[C@@]2(C)CC[C@@H](O)C[C@@H]12 [Example 29] | 100 to 1000 nM | 186%
CC[C@H]1[C@@H](O)[C@@H]2[C@H](CC[C@]3(C)[C@@H]([C@H](C)CCOC(=O)N[C@H]4CC[C@H](O)CC4)CC[C@@H]23)[C@@]2(C)CC[C@@H](O)C[C@@H]12 [Example 185] | 100 to 1000 nM | 392%
CC[C@H]1[C@@H](O)[C@@H]2[C@H](CC[C@]3(C)[C@@H]([C@H](C)CCOC(=O)N4CCOCC4)CC[C@@H]23)[C@@]2(C)CC[C@@H](O)C[C@@H]12 [Example 160] | 100 to 1000 nM | 142%
CC[C@H]1[C@@H](O)[C@@H]2[C@H](CC[C@]3(C)[C@@H]([C@H](C)CCCOC(=O)NS(=O)(=O)c4ccc(-c5ccccc5)cc4)CC[C@@H]23)[C@@]2(C)CC[C@@H](O)C[C@@H]12 [Example 116] | 1000 to 10000 nM | 294%
CC[C@H]1[C@@H](O)[C@@H]2[C@H](CC[C@]3(C)[C@@H]([C@H](C)COC(=O)NS(=O)(=O)c4ccc(OC(C)(C)C)cc4)CC[C@@H]23)[C@@]2(C)CC[C@@H](O)C[C@@H]12 [Example 30] | < 100 nM | 261%
CC[C@H]1[C@@H](O)[C@@H]2[C@H](CC[C@]3(C)[C@@H]([C@H](C)COC(=O)NS(=O)(=O)c4ccc(-c5ccccc5)cc4)CC[C@@H]23)[C@@]2(C)CC[C@@H](O)C[C@@H]12 [Example 32] | < 100 nM | 164%

SMILES | EC50 | Emax
CC[C@H]1[C@@H](O)[C@@H]2[C@H](CC[C@]3(C)[C@@H]([C@H](C)CCOC(=O)NS(=O)(=O)c4ccc(OCC(F)(F)F)cc4)CC[C@@H]23)[C@@]2(C)CC[C@@H](O)C[C@@H]12 [Example 101] | 100 to 1000 nM | 289%
CC[C@H]1[C@@H](O)[C@@H]2[C@H](CC[C@]3(C)[C@@H]([C@H](C)COC(=O)NS(=O)(=O)c4ccc(-n5ccnc5)nc4)CC[C@@H]23)[C@@]2(C)CC[C@@H](O)C[C@@H]12 [Example 44-m] | < 100 nM | 206%
CC[C@H]1[C@@H](O)[C@@H]2[C@H](CC[C@]3(C)[C@@H]([C@H](C)CCOC(=O)NS(=O)(=O)c4ccc5c(c4)OCCO5)CC[C@@H]23)[C@@]2(C)CC[C@@H](O)C[C@@H]12 [Example 90] | < 100 nM | 225%
CC[C@H]1[C@@H](O)[C@@H]2[C@H](CC[C@]3(C)[C@@H]([C@H](C)COC(=O)NS(=O)(=O)c4ccc(-n5cnnn5)nc4)CC[C@@H]23)[C@@]2(C)CC[C@@H](O)C[C@@H]12 [Example 44-d] | 100 to 1000 nM | 195%
CC[C@H]1[C@@H](O)[C@@H]2[C@H](CC[C@]3(C)[C@@H]([C@H](C)CCOC(=O)NS(=O)(=O)c4ccccc4F)CC[C@@H]23)[C@@]2(C)CC[C@@H](O)C[C@@H]12 [Example 71] | 100 to 1000 nM | 317%
CC[C@H]1[C@@H](O)[C@@H]2[C@H](CC[C@]3(C)[C@@H]([C@H](C)CCOC(=O)N4CCCS4(=O)=O)CC[C@@H]23)[C@@]2(C)CC[C@@H](O)C[C@@H]12 [Example 74] | 100 to 1000 nM | 358%
CC[C@H]1[C@@H](O)[C@@H]2[C@H](CC[C@]3(C)[C@@H]([C@H](C)CCOC(=O)NS(=O)(=O)c4cccnc4)CC[C@@H]23)[C@@]2(C)CC[C@@H](O)C[C@@H]12 [Example 95] | 1000 to 10000 nM | 420%
CC[C@H]1[C@@H](O)[C@@H]2[C@H](CC[C@]3(C)[C@@H]([C@H](C)CCOC(=O)NC4(C)CC4)CC[C@@H]23)[C@@]2(C)CC[C@@H](O)C[C@@H]12 [Example 135] | 100 to 1000 nM | 224%
CC[C@H]1[C@@H](O)[C@@H]2[C@H](CC[C@]3(C)[C@@H]([C@H](C)CCOC(=O)NS(=O)(=O)c4ccc5c(c4)CCCC5)CC[C@@H]23)[C@@]2(C)CC[C@@H](O)C[C@@H]12 [Example 89] | < 100 nM | 278%
CC[C@H]1[C@@H](O)[C@@H]2[C@H](CC[C@]3(C)[C@@H]([C@H](C)CCOC(=O)N4CCC[C@H]4CO)CC[C@@H]23)[C@@]2(C)CC[C@@H](O)C[C@@H]12 [Example 210] | < 100 nM | 156%
CC[C@H]1[C@@H](O)[C@@H]2[C@H](CC[C@]3(C)[C@@H]([C@H](C)CCOC(=O)NS(=O)(=O)c4ccncc4)CC[C@@H]23)[C@@]2(C)CC[C@@H](O)C[C@@H]12 [Example 73] | 1000 to 10000 nM | 352%
CC[C@H]1[C@@H](O)[C@@H]2[C@H](CC[C@]3(C)[C@@H]([C@H](C)CCOC(=O)N4CCC[C@@H](CO)C4)CC[C@@H]23)[C@@]2(C)CC[C@@H](O)C[C@@H]12 [Example 204] | < 100 nM | 310%
CC[C@H]1[C@@H](O)[C@@H]2[C@H](CC[C@]3(C)[C@@H]([C@H](C)CCOC(=O)NCCc4cccs4)CC[C@@H]23)[C@@]2(C)CC[C@@H](O)C[C@@H]12 [Example 143] | 100 to 1000 nM | 202%
CC[C@H]1[C@@H](O)[C@@H]2[C@H](CC[C@]3(C)[C@@H]([C@H](C)COC(=O)NS(=O)(=O)c4ccc(-c5ccc(C(C)(C)C)cc5)s4)CC[C@@H]23)[C@@]2(C)CC[C@@H](O)C[C@@H]12 [Example 25] | 100 to 1000 nM | 182%
CC[C@H]1[C@@H](O)[C@@H]2[C@H](CC[C@]3(C)[C@@H]([C@H](C)CCOC(=O)NS(=O)(=O)c4ccc(-c5ccccc5)cc4)CC[C@@H]23)[C@@]2(C)CC[C@@H](O)C[C@@H]12 [Example 68] | 100 to 1000 nM | 286%
CC[C@H]1[C@@H](O)[C@@H]2[C@H](CC[C@]3(C)[C@@H]([C@H](C)CCOC(=O)NS(=O)(=O)c4ccc(Cl)cc4)CC[C@@H]23)[C@@]2(C)CC[C@@H](O)C[C@@H]12 [Example 61] | < 100 nM | 270%
CC[C@H]1[C@@H](O)[C@@H]2[C@H](CC[C@]3(C)[C@@H]([C@H](C)CCOC(=O)NCCCCCO)CC[C@@H]23)[C@@]2(C)CC[C@@H](O)C[C@@H]12 [Example 174] | < 100 nM | 228%
CC[C@H]1[C@@H](O)[C@@H]2[C@H](CC[C@]3(C)[C@@H]([C@H](C)CCCOC(=O)NS(=O)(=O)C4CCCCC4)CC[C@@H]23)[C@@]2(C)CC[C@@H](O)C[C@@H]12 [Example 2] | 100 to 1000 nM | 247%
